Test results published in patent publication US5079257A, “Indoloquinone compounds” (priority 1986, dated 1992).
Converted amounts (≈) assume the structure as drawn. Like-named read-outs stand apart in the source and are kept apart here.

Tests used:
[1] = in vitro and in mice; cited from earlier work
L1210 cells [2] = test: L1210 activity in clonogenic assay (TNO Rijswijk); type: cell-based; details: Mus musculus, L1210, 192 h, read-out: ID-50 L1210, clonogenic assay
Source text: The indoloquinones II (formula II) have been tested in respect of their cytotoxic activity against L1210 cells and R-1 cells (Rhabdomyosarcoma Cells) in a bioliquid assay at the department of oncology of the Free University of Amsterdam (Table I). In addition to this seven compounds (E.O. 1, E.O. 2, E.O. 4, E.O. 7, E.O. 9, E.O. 16 and E.O. 17) have been tested on L1210 activity in a clonogenic assay at TNO, Rijswijk. Further, the lowest active doses of the compounds E.O. 1, E.O. 2, E.O. 4 and E.O. 9 have been determined at TNO Rijswijk, according to the method described by Lamberts et al. [Oncology, 40, 301 (1983)]. (Table II). Eight indoloquinones (E.O. 1, E.O. 2, E.O. 4, E.O. 4A, E.O. 8, E.O. 9, E.O. 33 and E.O. 35) have been tested in a panel of five human tumour lines (TNO Rijswijk; Table III). From the latter group three indoloquinones (E.O. 1, E.O. 4 and E.O. 9) have been selected for a cytotoxicity study, involving five slowly growing human tumour lines (University of Freiburg; Table IV).
The L1210 clonogenic assay used was an improved variant of the method described earlier by H. MARTIN et al. [Cancer Chemother., Rep., 51 451 (1967)] and L. M. van Putten et al. [Cancer Treat. Rep., 60, 373 (1976)] for the growth into colonies of L1210 cells in a soft agar medium. From a suspension culture ~100 L1210 Cells (0.1 ml) were plated into […] culture dishes (Falcon), containing 1 ml of soft agar growth medium and the compound to be tested in appropriate concentrations. The soft agar growth medium consisted of Dulbecco medium supplemented with 15.8% horse serum, 60 μmol 2-mercapto-ethanol, 20 mg/ml L-asparagine and 0.3% bacto agar (Difco).
The culture dishes were incubated at 37° C. in an atmosphere of 1% CO2 in humidified air for 8 days. After this period of continuous drug exposure, colonies were counted and dose-effect curves were made.

L1210 [3] = test: In vivo L1210 experiments (TNO Rijswijk); parameters: species or system mice
Procedure: The in vivo L1210 experiments were carried out in male Balb/c X DBA.2 Fl hybrid mice at TNO, Rijswijk.
In these experiments also, the drugs were administered IP as suspensions in carboxymethyl cellulose […] as a single dose at the first day.

L1210 cells [4] = test: L1210 activity (bioliquid assay), cytotoxicity; type: cell-based; details: Mus musculus
Procedure, shortened: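 Suspension culture in RPMI with 15% FCS and 2-mercaptoethanol (60 μmol). Continuous compound exposure for 48 hours at 37° C under 5% CO2 in humidified air. Cell numbers then counted on an electronic microcell counter.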

[5] = test system: R-1 cells (Rhabdomyosarcoma Cells); test: R-1 activity (bioliquid assay), cytotoxicity; type: cell-based; details: Rhabdomyosarcoma cell
Procedure, shortened: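 Rhabdomyosarcoma R-1 cells (~10^6 per dish) in Dulbecco's medium with 10% FCS were exposed to drug solution, which was then replaced by fresh medium. Cells were trypsinized after 48 hours and counted electronically.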

[6] = Half-wave reduction potentials / polarography (University of Utrecht); type: physicochemical
Source text: *The halve wave reduction potentials (E1/2) have been determined at the
Pharmaceutical Laboratory of University of Utrecht. Only the first
(quinone) reduction potential has been given.
Additional evidence for the occurrence of a bioreductive activation mechanism during the cytotoxic action of indoloquinones (II) was obtained via electrochemical studies, which have been carried out at the Pharmaceutical Laboratory of the University of Utrecht. […]

in vivo = test: in vivo; parameters: species or system mice; details: mouse, IP, single dose, suspension in carboxymethyl cellulose (2%)
Procedure: The acute toxicity experiments were carried out with male C5 Black/Rij X CBA/Rij Fl hybrid mice at TNO, Rijswijk. The drugs were administrated IP as suspensions in carboxymethyl cellulose (2%) as a single dose at the first day.

IgR37 cells melanoma = test: In vitro panel of human tumour lines (TNO): IgR-37; type: cell-based; details: about 72 hours; note: key: -: no inhibition of cell growth; +: total cell-kill
Procedure, shortened: (§1)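 Cells (5×10^4/ml, Dulbecco's medium + 10% FCS) grafted 48 h, then continuously exposed to compound (Hanks'/ethanol, final ethanol <1%) for about 72 h at 37°C, 10% CO2. Crystal violet fixation/staining; inhibiting concentration estimated qualitatively over increasing doses.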

[7] = test system: A 204 cells; rhabdomyosarcoma; test: In vitro panel of human tumour lines (TNO): A 204; type: cell-based; details: about 72 hours; note: key: -: no inhibition of cell growth; +: total cell-kill
Procedure, shortened: as §1

[8] = test system: T 24 cells; bladder carcinoma; test: In vitro panel of human tumour lines (TNO): T 24; type: cell-based; details: about 72 hours; note: key: -: no inhibition of cell growth; +: total cell-kill
Procedure, shortened: as §1

WiDr cells; colon tumour = test: In vitro panel of human tumour lines (TNO): WiDr; type: cell-based; details: about 72 hours; note: key: -: no inhibition of cell growth; +: total cell-kill
Procedure, shortened: (§2)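 Cells in Dulbecco's medium with 10% foetal calf serum were seeded 48 h, then exposed continuously to increasing compound concentrations (final ethanol <1%) for about 72 h at 37° in 10% CO2. Crystal violet staining after fixation; inhibiting concentration estimated qualitatively.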

[9] = Cytotoxic activity (test not specified); type: cell-based
MCF7 breast cancer cells = test: In vitro panel of human tumour lines (TNO): MCF-7; type: cell-based; details: about 72 hours; note: key: -: no inhibition of cell growth; +: total cell-kill
Procedure, shortened: as §2

L1210 [10] = details: 3-6 mg/kg; Remers et al., J. Med. Chem. 26 16 (1983); cited from earlier work
[11] = test system: breast, pancreatic and prostatic adenocarcinomas, colon, bladder, lung and gastro-intestinal cancer; details: cited from earlier work
DNA = details: cited from earlier work
[12] = test system: supercoiled covalently closed circular (CCC) DNA; details: reducing agent, presence of oxygen; cited from earlier work
Ovarian (MRI-H-207) line = type: in vivo, human; details: 5 mg/kg, days of treatment 0.7
Source text: The xenograft experiments have been carried by Dr. H. H. Fiebig of the University of Freiburg [Lung-NSCLC (LXGF) line, Renal line, Breast line; See: H. H. Fiebig et al., Behring Inst. Mitt., 74 343] and by Dr. E. Boven of the Free University Hospital Amsterdam [Ovarian (MRI-H-207) line; See: E. Boven et al., Cancer Res., 45, 86 (1985) and E. Boven et al., Eur. J. Clin. Oncol., 21, 1253 (1985)].
Mice: C57B1 athymic (nu/nu) female mice, 8 to 10 weeks of age were used for s.c. bilateral implantation of tumour fragments 2 mm diameter.
Treatment: E.O. 9 was dissolved in saline at a concentration of 0.5 mg/ml prior to administration. Drug doses and schedules were derived from studies in experimental murine tumour systems and from orientation studies in non-tumour-bearing nude mice. Treatment was started i.v. when tumours measured 50-150 mm^3. After randomization a group of 6-7 tumour-bearing mice was treated and a group of 5-6 tumour-bearing mice served as control.
Evaluation of efficacy: Tumours were measured twice weekly in three dimensions. Efficacy was expressed as the mean of relative tumour volume in treated animals vs. that in control animals×100 (% T/C). The optimal value was calculated within 35 days after the last injection. Toxic death (dead mice within two weeks after the last injection) were excluded from the evaluation.
MRI-H-207: An undifferentiated adenocarcinoma kindly provided by Dr. A. E. Bogden, Worcester, Mass, with a doubling time of 3-5 days.

[13] = 8 days continuous exposure, TNO Rijswijk

## COC1=C(C)C(=O)c2c(c(COC(N)=O)c3n2CCC3)C1=O [7-methoxymitosene]
[1]
  antibacterial activity: important antibacterial activity in vitro and in mice

## COC1=CC(=O)c2c(c(CO)c(/C=C/CO)n2C)C1=O [E.O. 7, 3-Hydroxymethyl-5-methoxy-1-methyl-2-[1H-indole-4,7-dione]prop-β-en-α-ol]
L1210 cells [2]; [13]
  IC50: 2.2 µg/mL (≈ 7.93 µM)
L1210 [3]; 250 mg/kg IP single dose
  % T/C: tox.
L1210 cells [4]; L1210, Table I, bioliquid assay, 48 hours, read-out: ID-50 L1210
  IC50: 0.5 µg/mL (≈ 1.8 µM)
[5]; Table I, bioliquid assay, read-out: ID-50 R-1
  IC50: 4.2 µg/mL (≈ 15.1 µM)
[6]; DC-polarography
  direct current polarogram: a reduction wave representing the reversible reduction of the benzoquinone nucleus
[6]; pH = 8 vs Ag/AgCl
  half-wave potential E1.2, wave I: -367 mV
In vivo
  LD50: > 100 mg/kg

## CCCCn1c(/C=C/CO)c(CO)c2c1C(=O)C=C(OC)C2=O [E.O. 16, 3-Hydroxymethyl-5-methoxy-1-butyl-2-[1H-indole-4,7-dione]prop-β-en-α-ol]
L1210 cells [2]; [13]
  IC50: 0.9 µg/mL (≈ 2.82 µM)
L1210 [3]; Mus musculus, L1210, 80 mg/kg IP single dose, read-out: % T/C
  response vs control in vivo at 80 mg/kg: 89%
L1210 [3]; Mus musculus, L1210, 100 mg/kg IP single dose, read-out: % T/C
  response vs control in vivo at 100 mg/kg: 100%
In vivo
  LD50: 80 mg/kg

## CCCCn1c(/C=C/CO)c(CO)c2c1C(=O)C=C(N1CC1)C2=O [E.O. 17, 5-Aziridino-3-hydroxymethyl-1-butyl-2-[1H-indole-4,7-dione]prop-β-en-αol]
L1210 cells [2]
  IC50: 0.3 µg/mL (≈ 0.908 µM)
In vivo
  LD50: 50 to 80 mg/kg

## COC(=O)/C=C/c1c(C(=O)OC)c2c(n1C)C(=O)C=C(N1CC1)C2=O [E.O. 22, Methyl 5-aziridino-3-methoxycarbonyl-1-methyl-2-[1H-indole-4,7-dione]acrylate]
IgR37 cells melanoma; 0.01 μg/ml
  in vitro activity score, IgR-37: -
IgR37 cells melanoma; 0.1 μg/ml
  in vitro activity score, IgR-37: -
IgR37 cells melanoma; 1.0 μg/ml
  in vitro activity score, IgR-37: +
[7]; 0.01 μg/ml
  in vitro activity score, A 204: -
[7]; 0.1 μg/ml
  in vitro activity score, A 204: -
[7]; 1.0 μg/ml
  in vitro activity score, A 204: +
L1210 cells [4]; L1210, 48 h, read-out: ID-50 L1210, Table IA, para-indoloquinone diesters
  IC50: 0.01 µg/mL (≈ 0.029 µM)
[5]; read-out: ID-50 R-1, Table IA, para-indoloquinone diesters
  IC50: 0.5 µg/mL (≈ 1.45 µM)
[8]; 0.01 μg/ml
  in vitro activity score, T 24: -
[8]; 0.1 μg/ml
  in vitro activity score, T 24: -
[8]; 1.0 μg/ml
  in vitro activity score, T 24: +
[6]; Table IA, only the first (quinone) reduction potential
  E1/2, halve wave reduction potential: -179 mV
WiDr cells; colon tumour; 0.01 μg/ml
  in vitro activity score, WiDr: -
WiDr cells; colon tumour; 0.1 μg/ml
  in vitro activity score, WiDr: -
[9]
  cytotoxic activities: high cytotoxic activities
MCF7 breast cancer cells; 0.01 μg/ml
  in vitro activity score, MCF-7: -
MCF7 breast cancer cells; 0.1 μg/ml
  in vitro activity score, MCF-7: -

## CO[C@@]12[C@H](COC(N)=O)C3=C(C(=O)C(C)=C(N)C3=O)N1C[C@@H]1N[C@@H]12 [MMC, mitomycin C, reference compound]
IgR37 cells melanoma; 0.01 μg/ml
  in vitro activity score, IgR-37: -
IgR37 cells melanoma; 1.0 μg/ml
  in vitro activity score, IgR-37: +
IgR37 cells melanoma; 10 μg/ml
  in vitro activity score, IgR-37: +
L1210 [10]
  max. effect (% T/C): 124-153%
L1210 [3]; Mus musculus, L1210, 4 mg/kg IP single dose, read-out: % T/C
  response vs control in vivo at 4 mg/kg: 200%
L1210 [3]; Mus musculus, L1210, 5 mg/kg IP single dose, read-out: % T/C
  response vs control in vivo at 5 mg/kg: 175%
L1210 [3]; Mus musculus, L1210, 6 mg/kg IP single dose, read-out: % T/C
  response vs control in vivo at 6 mg/kg: 175%
[7]; 0.01 μg/ml
  in vitro activity score, A 204: -
[7]; 1.0 μg/ml
  in vitro activity score, A 204: +
[7]; 10 μg/ml
  in vitro activity score, A 204: +
L1210 cells [4]; L1210, 48 h, Table VIII, read-out: ID-50 L1210
  IC50: 0.05 µg/mL (≈ 0.15 µM)
[5]; Table VIII, read-out: ID-50 R-1
  IC50: 0.03 µg/mL (≈ 0.0897 µM)
[11]
  antitumour activity: active against breast, pancreatic and prostatic adenocarcinomas, and notably against colon, bladder, lung and gastro-intestinal cancer
DNA
  DNA crosslinks: caused rapid DNA instrand crosslinks in a dose dependent fashion
[12]
  DNA strand breaks: produced single strand breaks
[8]; 0.01 μg/ml
  in vitro activity score, T 24: -
[8]; 10 μg/ml
  in vitro activity score, T 24: +
Ovarian (MRI-H-207) line
  toxic deaths: 1/7
WiDr cells; colon tumour; 0.01 μg/ml
  in vitro activity score, WiDr: -
WiDr cells; colon tumour; 0.1 μg/ml
  in vitro activity score, WiDr: -
WiDr cells; colon tumour; 10 μg/ml
  in vitro activity score, WiDr: +
MCF7 breast cancer cells; 0.01 μg/ml
  in vitro activity score, MCF-7: -
MCF7 breast cancer cells; 0.1 μg/ml
  in vitro activity score, MCF-7: -
MCF7 breast cancer cells; 10 μg/ml
  in vitro activity score, MCF-7: +
